Results on five molecules are retold here after ChEMBL document CHEMBL5608168, “An overview of PROTACs targeting MDM2 as a novel approach for cancer therapy” (Eur J Med Chem, 2024).

In data set [1] the target is E3 ubiquitin-protein ligase Mdm2 (Homo sapiens, UniProt Q00987). Nature of the data set: Homo-PROTAC activity at MDM2 in human A549 cells assessed as self ubiquitination mediated protein degradation by Western Blot analysis. The class given is cell-based. For orientation: A western blot detects proteins with antibodies after separation by electrophoresis.
E3 ubiquitin-protein ligase Mdm2, sequence (Q00987 whole entry): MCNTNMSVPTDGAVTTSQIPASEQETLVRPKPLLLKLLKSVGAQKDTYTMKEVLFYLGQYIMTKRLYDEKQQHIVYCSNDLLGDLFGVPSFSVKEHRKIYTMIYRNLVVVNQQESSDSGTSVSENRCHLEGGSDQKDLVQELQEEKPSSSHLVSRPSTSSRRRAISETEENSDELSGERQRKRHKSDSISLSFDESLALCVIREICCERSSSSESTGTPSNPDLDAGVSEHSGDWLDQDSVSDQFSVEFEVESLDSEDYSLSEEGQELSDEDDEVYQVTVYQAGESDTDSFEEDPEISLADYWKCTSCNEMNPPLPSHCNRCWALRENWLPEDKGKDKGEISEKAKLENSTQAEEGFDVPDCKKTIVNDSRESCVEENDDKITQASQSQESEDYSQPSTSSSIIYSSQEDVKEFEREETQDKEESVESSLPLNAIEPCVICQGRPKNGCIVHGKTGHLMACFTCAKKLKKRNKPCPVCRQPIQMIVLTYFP
Data set [2] has as its system A549. Kind of data set: Induction of apoptosis in human A549 cells assessed as apoptotic rate at 5 uM incubated for 24 hrs by Annexin V-FITC staining based flow cytometry relative to control. Type of data set: functional. For orientation: Flow cytometry measures light scatter and fluorescence of single cells or particles in a stream.
A short description of data set [3]: Terminal half life in Sprague-Dawley rat at 2 mg/kg, iv by LC-MS/MS analysis. Type of data set: ADME, organism-based. Particulars: in vivo.
In data set [4] the test system is A549. Nature of the data set: Antitumor activity against human A549 cells xenografted in BALB/c nude mouse assessed as tumor growth inhibition at 30 mg/kg, ip administered twice daily for 21 days relative to control. Type of data set: functional. Particulars: A549, 504 h, time 21 day, read-out: TGI. On the technique in general: Xenograft models place foreign cells or tissue in a host animal.

In data set [5] the test system is A549. Nature of the data set: Anticancer activity against human A549 cells assessed as reduction in cell growth incubated for 72 hrs by CCK-8 assay. The class given is functional, cell-based. Particulars: A549, 72 h.
The nature of data set [6]: Antiproliferative activity against human Triple-negative breast cancer cell. The class given is functional, cell-based. The note with it: Breast carcinoma cell.
Data set [7] can be described thus: Metabolic stability in mouse liver microsomes assessed as half life. Type of data set: ADME, Microsome.
Data set [8] can be described thus: Antiproliferative activity against human derived Acute myeloid leukemic cells assessed as reduction in cell viability incubated for 48 hr by CellTiter-Glo assay. The class given is functional, cell-based. Particulars: Leukemia cell.
The subject of a further data set is MOLM-13. Kind of data set: Antiproliferative activity against human MOLM-13 assessed as reduction in cell viability. The class given is functional, cell-based.

In the case of `CCOc1cc(C(C)(C)C)ccc1C1=NC(c2ccc(Cl)cc2)C(c2ccc(Cl)cc2)N1C(=O)N1CCN(CC(=O)NCCOCCOCCOCCNC(=O)CN2CCN(C(=O)N3C(c4ccc(C(C)(C)C)cc4OCC)=NC(c4ccc(Cl)cc4)C3c3ccc(Cl)cc3)CC2=O)C(=O)C1` (racemic), the DC50 (commonly the concentration at which degradation of the target reaches its halfway point) in [1] was determined as 1010 nM.

Consider `C[C@H]1[C@H](C)CC[C@]2(C(=O)NCCOCCOCCOCCNc3cccc4c3C(=O)N(C3CCC(=O)NC3=O)C4=O)CC[C@]3(C)C(=CC[C@@H]4[C@@]5(C)CC[C@H](O)C(C)(C)[C@@H]5CC[C@]43C)[C@H]12` (some centres undefined), for which the Activity in the data set on A549 [2] turned out to be 26.74%.

As to `CCOc1cc(C(C)(C)C)ccc1C1=N[C@@H](c2ccc(Cl)cc2)[C@@H](c2ccc(Cl)cc2)N1C(=O)N1CCN(CC(=O)NCCOCCOCCOCCNC(=O)CN2CCN(C(=O)N3C(c4ccc(C(C)(C)C)cc4OCC)=N[C@@H](c4ccc(Cl)cc4)[C@H]3c3ccc(Cl)cc3)CC2=O)C(=O)C1`, the “beta t1/2” value in data set [3] came out at 576 min. Besides, the inhibition in vivo at 30 mg/kg in the data set on A549 [4] is 52.4%. The concentration for half-maximal inhibition (IC50) (usually the concentration that gives 50% inhibition) in the data set on A549 [5] was found to be 580 nM.

In turn, `CCOc1cc(C(C)(C)C)ccc1C1=N[C@@](C)(c2ccc(Cl)cc2)[C@@](C)(c2ccc(Cl)cc2)N1C(=O)N1CCN(CC(=O)NCCOCCOCCOCC(=O)N[C@H](C(=O)N2C[C@H](O)C[C@H]2C(=O)NCc2ccc(-c3scnc3C)cc2)C(C)(C)C)CC1` returned an IC50 in data set [6] of 4000 nM. In data set [7], the half-life – broadly, the time needed for the level to fall by half in the phase considered – is 25.9 min.

For the molecule `Cc1ncsc1-c1ccc(CNC(=O)[C@@H]2C[C@@H](O)CN2C(=O)[C@@H](NC(=O)CCCCCCCCC(=O)N2CCN(S(=O)(=O)C[C@@H](N3C(=O)[C@@](C)(CC(=O)O)C[C@H](c4cccc(Cl)c4)[C@H]3c3ccc(Cl)cc3)C(C)(C)C)CC2)C(C)(C)C)cc1`, the IC50 in data set [8] amounted to 40 nM; in the data set with MOLM-13, 50 nM.
